US12162863B2, “Modulators of stimulator of interferon genes (STING)” (RYVU THERAPEUTICS S.A., priority 2018, dated 2024)

What was measured:
[1] = tested on: NF-κB pathway in THP-1 dual cells; assay: THP-1 Dual Reporter Assay, NF-κB pathway (SEAP reporter); assay type: cell-based; settings: Homo sapiens, THP1-Dual, 18 h of stimulation, absorbance at 630 nm, read-out: THP1 Dual EC50 (μM) NFkB
Protocol: (§1) THP-1 Dual Reporter Assay
(§2) Compounds of the present invention were tested for their activity using THP-1 dual cells (Invivogen, cat no. thpd-nfis) allowing for simultaneous study of NF-κB pathway and the interferon regulatory factor (IRF) pathway. THP-1 dual cells contain luciferase reporter gene under the control of an ISG54 (interferon-stimulated gene) minimal promoter in conjunction with five interferon-stimulated response elements and a secreted embryonic alkaline phosphatase reporter gene under the control an IFN (interferon)-β minimal promoter fused to five copies of the NF-κB consensus transcriptional response element with three copies of the c-Rel binding site. Following 18 h of stimulation with STING agonist, medium was collected and transferred onto fresh cell culture plate. To verify activity of the IRF pathway, luminescence activity was measured with standard laboratory plate reader immediately after addition 10 μl of the medium to 50 μl of luminescence reagent (Invivogen, cat. No. rep-qlc2). To verify activity of NF-κB pathway, 20 μl of the medium was mixed with 80 μl of a detection medium (Invivogen, cat. No. rep-qb2) and incubated for 2 hours at 37° C. in a humidified atmosphere containing 5% CO2. Next, absorbance at 630 nm was recorded using standard laboratory plate reader.

[2] = tested on: interferon regulatory factor (IRF) pathway in THP-1 dual cells; assay: THP-1 Dual Reporter Assay, IRF pathway (luciferase reporter); assay type: cell-based; settings: Homo sapiens, THP1-Dual, 18 h of stimulation, luminescence
Protocol: as §1, §2

human STING = human STING (Homo sapiens, UniProt Q86WV6); assay: Fluorescence Thermal Shift assay; assay type: binding; settings: 50 μM compound; STING 0.1 mg/ml; 20 minutes preincubation; read-out: [hSTING] FTS, ΔTm [° C.] for 50 μM
human STING, sequence (Q86WV6 whole entry H232R): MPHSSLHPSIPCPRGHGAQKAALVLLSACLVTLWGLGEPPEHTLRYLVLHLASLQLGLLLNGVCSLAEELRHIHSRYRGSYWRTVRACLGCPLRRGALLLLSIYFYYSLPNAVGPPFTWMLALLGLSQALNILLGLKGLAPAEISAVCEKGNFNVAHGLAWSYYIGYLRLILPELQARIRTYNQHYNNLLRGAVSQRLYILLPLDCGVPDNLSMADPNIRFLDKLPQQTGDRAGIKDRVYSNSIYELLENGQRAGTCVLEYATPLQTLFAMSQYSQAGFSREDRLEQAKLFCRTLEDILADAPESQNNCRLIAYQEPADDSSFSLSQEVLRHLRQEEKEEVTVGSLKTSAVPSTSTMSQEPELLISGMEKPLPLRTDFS
Protocol: Fluorescence Thermal Shift Assay Compounds of the present invention were tested for binding to human STING in Fluorescence Thermal Shift assay. STING was preincubated with the compounds for 20 minutes in 50 mM Hepes, 150 mM NaCl, pH 7.5 in 16 μl volume, following by adding 4 μl of SyproOrange dye dilution (ThermoFisher, cat no. S-6651). Final STING concentration was 0.1 mg/ml. Thermal unfolding was performed in Real-Time PCR QuantStudio 6 Flex System (Applied Biosystems), from 25 to 99° C., with continuous ramp mode and ramp rate 0.033° C./s. The data were analyzed using Protein Thermal Shift Software (ThermoFisher). […] For example, ΔTm [° C.] of FTS assay for following examples are: […]

SMILES | EC50 [1] [µM] | EC50 [2] [µM] | ΔTm at 50 µM (human STING) [°C]
O=c1c(CN(CCCCn2ccnc2)Cc2ccncc2)coc2ccccc12 [Example 1, 3-({[4-(1H-imidazol-1-yl)butyl](pyridin-4-ylmethyl)amino}methyl)-4H-chromen-4-one] | ≥ 20 | 10 to 20 | < 2.5
O=c1c(CN(CCCn2cccc2)Cc2ccncc2)coc2ccccc12 [Example 2, 3-({[(pyridin-4-yl)methyl][3-(1H-pyrrol-1-yl)propyl]amino}methyl)-4H-chromen-4-one] | ≥ 20 | 10 to 20 | < 2.5
O=c1c(CN(CCCn2cccn2)Cc2ccncc2)coc2ccccc12 [Example 3, 3-({[3-(1H-pyrazol-1-yl)propyl](pyridin-4-ylmethyl)amino}methyl)-4H-chromen-4-one] | ≥ 20 | ≥ 20 | < 2.5
O=c1c(CN(CCCn2ccnn2)Cc2ccncc2)coc2ccccc12 [Example 4, 3-{[(pyridin-4-ylmethyl)[3-(1H-1,2,3-triazol-1-yl)propyl]amino]methyl}-4H-chromen-4-one] | ≥ 20 | ≥ 20 | < 2.5
Cc1ccc2c(=O)c(CN(CCCn3ccnc3)Cc3ccncc3)coc2c1C [Example 5, 3-({[3-(1H-imidazol-1-yl)propyl](pyridin-4-ylmethyl)amino}methyl)-7,8-dimethyl-4H-chromen-4-one] | ≤ 10 | ≤ 10 | > 2.5
O=c1c(CN(CCCc2ccccn2)Cc2ccncc2)coc2ccccc12 [Example 6, 3-({[3-(pyridin-2-yl)propyl][(pyridin-4-yl)methyl]amino}methyl)-4H-chromen-4-one] | ≥ 20 | ≥ 20 | < 2.5
O=c1c(CN(CCCn2ccnc2)Cc2ccncc2)coc2c1ccc1ccccc12 [Example 7, 3-({[3-(1H-imidazol-1-yl)propyl](pyridin-4-ylmethyl)amino}methyl)-4H benzo[h]chromen-4-one] | ≤ 10 | ≤ 10 | > 2.5
O=C1CCCN1CCCN(Cc1ccncc1)Cc1coc2ccccc2c1=O [Example 8, 1-(3-{[(4-oxo-4H-chromen-3-yl)methyl](pyridin-4-ylmethyl)amino}propyl)pyrrolidin-2-one] | ≥ 20 | ≥ 20 | < 2.5
COc1ccc2c(=O)c(CN(CCCn3ccnc3)Cc3ccncc3)coc2c1 [Example 9, 3-({[3-(1H-imidazol-1-yl)propyl](pyridin-4-ylmethyl)amino}methyl)-7-methoxy-4H-chromen-4-one] | ≤ 10 | ≤ 10 | > 2.5
O=c1c(CN(CCCn2ccnc2)Cc2ccncc2)coc2cc(Br)ccc12 [Example 10, 7-bromo-3-({[3-(1H-imidazol-1-yl)propyl](pyridin-4 ylmethyl)amino}methyl)-4H-chromen-4-one] | 10 to 20 | ≤ 10 | > 2.5
O=c1c(CN(CCCn2ccnc2)Cc2ccncc2)coc2cc(F)ccc12 [Example 11, 7-fluoro-3-({[3-(1H-imidazol-1-yl)propyl](pyridin-4-ylmethyl)amino}methyl)-4H-chromen-4-one] | ≥ 20 | 10 to 20 | < 2.5
CN1CCN(c2ccc3c(=O)c(CN(CCCn4ccnc4)Cc4ccncc4)coc3c2)CC1 [Example 12, 3-({[3-(1H-imidazol-1-yl)propyl](pyridin-4-ylmethyl)amino}methyl)-7-(4-methylpiper-azin-1-yl)-4H-chromen-4-one] | 10 to 20 | ≤ 10 | > 2.5
O=c1c(CN(CCCn2ccnc2)Cc2ccncc2)coc2cc(OCc3ccccc3)ccc12 [Example 13, 7-(benzyloxy)-3-({[3-(1H-imidazol-1-yl)propyl](pyridin-4-ylmethyl)amino}methyl)-4H-chromen-4-one] | ≤ 10 | ≤ 10 | > 2.5
Cc1ccc2c(=O)c(CN(CCCn3ccnn3)Cc3ccncc3)coc2c1C [Example 14, 7,8-dimethyl-3-{[(pyridin-4-ylmethyl)[3-(1H-1,2,3-triazol-1-yl)propyl]amino]methyl}-4H-chromen-4-one] | 10 to 20 | 10 to 20 | > 2.5
Cc1ccc2c(=O)c(CN(CCCn3cccc3)Cc3ccncc3)coc2c1C [Example 15, 7,8-dimethyl-3-{[(pyridin-4-ylmethyl)[3-(1H-pyrrol-1-yl)propyl]amino]methyl}-4H-chromen-4-one] | ≥ 20 | ≥ 20 | < 2.5
O=c1c(CN(CCCn2ccnc2)Cc2ccncc2)coc2cc(O)ccc12 [Example 16, 7-hydroxy-3-({[3-(1H-imidazol-1-yl)propyl](pyridin-4-ylmethyl)amino}methyl)-4H-chromen-4-one] | ≥ 20 | 10 to 20 | > 2.5
O=c1c(CN(CCCn2cnc3ccccc32)Cc2ccncc2)coc2ccccc12 [Example 17, 3-({[3-(1H-1,3-benzodiazol-1-yl)propyl](pyridin-4-ylmethyl)amino}methyl)-4H-chromen-4-one] | 10 to 20 | ≤ 10 | > 2.5
COc1cc(CN(CCCn2ccnc2)Cc2coc3ccccc3c2=O)ccn1 [Example 18, 3-({[3-(1H-imidazol-1-yl)propyl][(2-methoxypyridin-4-yl)methyl]amino}methyl)-4H-chromen-4-one] | ≥ 20 | ≥ 20 | < 2.5
O=c1c(CN(CCCc2cccnc2)Cc2ccncc2)coc2ccccc12 [Example 19, 3-({[3-(pyridin-3-yl)propyl][(pyridin-4-yl)methyl]amino}methyl)-4H-chromen-4-one] | 10 to 20 | ≤ 10 | > 2.5
N#Cc1ccc2c(=O)c(CN(CCCn3ccnc3)Cc3ccncc3)coc2c1 [Example 24, 3-({[3-(1H-imidazol-1-yl)propyl][(pyridin-4-yl)methyl]amino}methyl)-4-oxo-4H-chromene-7-carbonitrile] | ≥ 20 | ≥ 20 | 
O=c1c(CN(CCCn2ccnc2)Cc2ccncc2)cnc2ccccn12 [Example 35, 3-({[3-(1H-imidazol-1-yl)propyl][(pyridin-4-yl)methyl]amino}methyl)-4H-pyrido[1,2-a]pyrimidin-4-one] | ≥ 20 | ≥ 20 | 
COc1cc(CN(CCCn2cnc3ccccc32)Cc2cnc3ccccn3c2=O)ccn1 [Example 86, 3-({[3-(1H-1,3-benzodiazol-1-yl)propyl][(2-methoxypyridin-4-yl)methyl]amino}methyl)-4H-pyrido[1,2-a]pyrimidin-4-one] | ≥ 20 | ≥ 20 | 
COc1cc(CN(CCCn2cnc3ccccc32)Cc2c(C)oc3c(ccc4ccccc43)c2=O)ccn1 [Example 87, 3-({[3-(1H-1,3-benzodiazol-1-yl)propyl][(2-methoxypyridin-4-yl)methyl]amino}methyl)-2-methyl-4H-benzo[h]chromen-4-one] | ≥ 20 | ≥ 20 | 
COc1cc(CN(CCCc2cncc3[nH]ncc23)Cc2c(C)oc3cc(Br)c(F)cc3c2=O)ccn1 [Example 92, 7-bromo-6-fluoro-3-({[(2-methoxypyridin-4-yl)methyl](3-{1H-pyrazolo[3,4-c]pyridin-4-yl}propyl)amino}methyl)-2-methyl-4H-chromen-4-one] | ≥ 20 | ≥ 20 | 
